Patent publication US20120003303A1, “ORAL ENTERIC ANTIDEPRESSANT FORMULATION” (CeNeRx Biopharma, Inc, priority 2009, published 2012)
Read-outs that look alike come from different tables or passages of the source.

Tests used:
[1] = human plasma pharmacokinetics of orally administered tyramine; type: in vivo
Description: Such pharmaceutical formulations are manufactured in such a way that the product passes unchanged through the stomach of the patient, and dissolves and releases the active ingredient when it leaves the stomach and enters the middle and lower portions of the small intestine. Such formulations can be in tablet or pellet form, where the active ingredient is in the inner part of the tablet or pellet and is enclosed in a film or envelope, the “enteric coating,” which is insoluble in acid environments, such as the stomach, but is soluble in near-neutral environments such as the small intestine.

MAO-B = biological target: T1, MAO-B (Homo sapiens, UniProt P27338); assay: inhibitory action on MAO-B (statement, no method given); type: biochemical
T1 sequence (P27338 1-520): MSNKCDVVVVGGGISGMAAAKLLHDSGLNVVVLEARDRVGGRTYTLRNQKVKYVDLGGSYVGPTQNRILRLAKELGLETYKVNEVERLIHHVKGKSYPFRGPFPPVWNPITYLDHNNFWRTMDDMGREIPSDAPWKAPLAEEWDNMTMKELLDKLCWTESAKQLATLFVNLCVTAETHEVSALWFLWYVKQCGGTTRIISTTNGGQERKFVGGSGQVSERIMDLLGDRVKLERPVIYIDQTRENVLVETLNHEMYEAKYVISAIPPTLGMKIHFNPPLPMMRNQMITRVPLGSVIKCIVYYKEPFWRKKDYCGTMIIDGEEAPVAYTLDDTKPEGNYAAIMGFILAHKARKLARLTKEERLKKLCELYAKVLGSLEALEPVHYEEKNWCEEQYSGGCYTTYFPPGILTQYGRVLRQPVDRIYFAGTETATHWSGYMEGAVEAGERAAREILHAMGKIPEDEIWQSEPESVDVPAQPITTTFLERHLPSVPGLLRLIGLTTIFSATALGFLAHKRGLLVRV

Compound	time after dosing at which non-detectable levels observed ([1]; human plasma, tyramine with food in a capsule, oral dose of 200 mg) [h]	Tmax ([1]; human plasma, tyramine with food in a capsule, oral dose of 200 mg, read-out: Tmax) [h]	Tmax ([1]; human, plasma, oral, 200 mg, dietary tyramine, absorbed and metabolized in stomach, upper small intestine and liver, read-out: average Tmax) [h]	inhibitory actions on MAO-B (MAO-B)
NCCc1ccc(O)cc1 [tyramine]	3 to 4	≤ 1.25	1.25	–
O=S1(=O)c2ccc(F)cc2Oc2cc(OCC(F)(F)F)ccc21 [CX157, 3-fluoro-7-(2,2,2-trifluoroethoxy)phenoxathiin 10,10-dioxide]	–	–	–	devoid of inhibitory actions on MAO-B
